Experimental data published in ChEMBL document CHEMBL1122349, “Mannich bases of 4-phenyl-3-buten-2-one: a new class of antiherpes agent” (1983).
Where “and” joins values, the source holds several entries; their conditions need not be identical. Identical values can stand only once.

Columns and labels:
Human alphaherpesvirus 1 [1] = test: Antiherpes (Type-1) activity in mouse paralysis model expressed as animals paralyzed treated/percent animals paralyzed control (% T/C); type: functional, herpes simplex virus
Human alphaherpesvirus 1 [2] = test: Average lesion score in hairless mouse model infected with HVH-1(antiherpes activity); type: functional, herpes simplex virus
Human alphaherpesvirus 1 [3] = test: Reduction of lesion (from control), in hairless mouse model infected with HVH-1(antiherpes activity); type: functional, herpes simplex virus; set-up: concentration or dose not given beside the values
Human alphaherpesvirus 1 [4] = test: Reduction of lesion severity, in hairless mouse test against herpes type-1,at 0.75% dose in 1.4% aq.polyvinyl alcohol; type: functional, herpes simplex virus
Mus musculus [5] = species on record: Mus musculus; test: Reduction of lesion severity, in hairless mouse test against herpes type-1,at 1.5% dose in 1.4% aq.polyvinyl alcohol; type: functional
Human alphaherpesvirus 1 [6] = test: Average lesion score in hairless mouse test against Herpes type-1 at dose of 0.75% in 1.4% aq.polyvinyl alcohol; type: functional, herpes simplex virus
Human alphaherpesvirus 1 [7] = test: Average lesion score in hairless mouse test against Herpes type-1 at dose of 3% in 1.4% aq.polyvinyl alcohol; type: functional, herpes simplex virus
Mus musculus [8] = species on record: Mus musculus; test: Average lesion score in hairless mouse test against Herpes type-1 at dose of 1.5% in 1.4% aq.polyvinyl alcohol; type: functional
Mus musculus [9] = species on record: Mus musculus; test: Average lesion score in hairless mouse test against Herpes type-1 at dose of 0.37% in 1.4% aq.polyvinyl alcohol; type: functional
Human alphaherpesvirus 1 [10] = test: Reduction of lesion severity, in hairless mouse test against herpes type-1,at 3% dose in 1.4% aq.polyvinyl alcohol; type: functional, herpes simplex virus
Mus musculus [11] = species on record: Mus musculus; test: Reduction of lesion severity, in hairless mouse test against herpes type-1,at 0.37% dose in 1.4% aq.polyvinyl alcohol; type: functional
Mus musculus [12] = species on record: Mus musculus; test: Average lesion score in hairless mouse test against Herpes type-1 at dose of 5% in 1.4% aq.polyvinyl alcohol; type: functional
Mus musculus [13] = species on record: Mus musculus; test: Reduction of lesion severity, in hairless mice test against herpes type-2,at 5% dose in 1.4% aq.polyvinyl alcohol; type: functional
Mus musculus [14] = species on record: Mus musculus; test: Reduction of lesion severity, in hairless mouse test against herpes type-1,at 5% dose in 1.4% aq.polyvinyl alcohol; type: functional
Mus musculus [15] = species on record: Mus musculus; test: Reduction of lesion severity, in hairless mice test against herpes type-2,at 0.75% dose in 1.4% aq.polyvinyl alcohol; type: functional
Mus musculus [16] = species on record: Mus musculus; test: Reduction of lesion severity, in hairless mice test against herpes type-2,at 0.37% dose in 1.4% aq.polyvinyl alcohol; type: functional
Mus musculus [17] = species on record: Mus musculus; test: Reduction of lesion severity, in hairless mice test against herpes type-2,at 2% dose in 1.4% aq.polyvinyl alcohol; type: functional
Mus musculus [18] = species on record: Mus musculus; test: Reduction of lesion severity, in hairless mice test against herpes type-2,at 1.5% dose in 1.4% aq.polyvinyl alcohol; type: functional

Structure (SMILES) | T/C (Human alphaherpesvirus 1 [1]) | Average lesion score (Human alphaherpesvirus 1 [2]) | Reduction (Human alphaherpesvirus 1 [3]) [%] | other results
Cl.O=C(/C=C/c1ccc(O)cc1)CCN1CCOCC1 | 63% |  |  | 
CN(C)CCC(=O)/C=C/c1ccccc1.Cl |  | 1.8 | 30 | 
C[N+](C)(C)CCC(=O)/C=C/c1ccccc1.[I-] |  | 1 | 64 | Reduction (Human alphaherpesvirus 1 [4]): 76%; Reduction (Mus musculus [5]): 82%; Average lesion score (Human alphaherpesvirus 1 [6]): 0.67; Average lesion score (Human alphaherpesvirus 1 [7]): 0.33; Average lesion score (Mus musculus [8]): 0.5; Average lesion score (Mus musculus [9]): 0.67; Reduction (Human alphaherpesvirus 1 [10]): 88%; Reduction (Mus musculus [11]): 76%
CCOP(=O)(CCC(=O)/C=C/c1ccccc1)OCC |  | 2.3 | 10 | 
Cl.O=C(/C=C/c1cccc([N+](=O)[O-])c1)CCN1CCOCC1 | 47% |  |  | 
O=C(/C=C/c1ccccc1)CCNc1ccccc1 |  | 2.67 | 9 | 
Cl.N#Cc1ccc(/C=C/C(=O)CCN2CCOCC2)cc1 | 24% |  |  | 
COc1cccc(/C=C/C(=O)CC[N+](C)(C)C)c1.[I-] |  | 0.33 | 86 | 
O=C(/C=C/c1ccccc1)CCSc1ccccc1 |  | 2.5 | 10 | 
C[S+](C)CCC(=O)/C=C/c1ccccc1.[I-] |  | 0.5 | 82 | Reduction (Human alphaherpesvirus 1 [4]): 76%; Reduction (Mus musculus [5]): 82%; Average lesion score (Human alphaherpesvirus 1 [6]): 0.67; Average lesion score (Human alphaherpesvirus 1 [7]): 0.33; Average lesion score (Mus musculus [8]): 0.5; Average lesion score (Mus musculus [9]): 0.67; Reduction (Human alphaherpesvirus 1 [10]): 88%; Reduction (Mus musculus [11]): 76%
CCC[S+](C)CCC(=O)/C=C/c1ccccc1.[I-] (stereo not drawn) |  | 0.67 | 74 | 
COc1ccc(/C=C/C(=O)CCN2CCOCC2)cc1.Cl | 25% |  |  | 
Cl.O=C(/C=C/c1cccc(C(F)(F)F)c1)CCN1CCOCC1 | 11% |  |  | 
O=C(O)CP(=O)([O-])[O-].[Na+].[Na+] [DISODIUM CARBOXYMETHYLPHOSPHONATE] | 24% and 61% | 0.33 | 74 | Reduction (Human alphaherpesvirus 1 [4]): 9%; Average lesion score (Mus musculus [12]): 0.33; Reduction (Mus musculus [13]): 78%; Average lesion score (Human alphaherpesvirus 1 [6]): 2.5; Average lesion score (Human alphaherpesvirus 1 [7]): 0.83; Reduction (Mus musculus [14]): 87%; Reduction (Human alphaherpesvirus 1 [10]): 69%
C[S+]([O-])CCC(=O)/C=C/c1ccccc1 (stereo not drawn) |  | 1.3 | 48 | 
Cl.O=C(/C=C/c1c(Cl)cccc1Cl)CCN1CCOCC1 | 14% |  |  | 
CS(=O)(=O)c1ccc(/C=C/C(=O)CCN2CCOCC2)cc1.Cl | 12% |  |  | 
CSc1ccc(/C=C/C(=O)CCN2CCOCC2)cc1.Cl | 12% |  |  | 
CC(C[N+](C)(C)C)C(=O)/C=C/c1ccccc1.[I-] (stereo not drawn) |  | 0.33 | 89 | 
Cl.OC(/C=C/c1ccccc1)CCN1CCOCC1 (stereo not drawn) | 88% |  |  | 
O=C(CCc1ccc(Cl)c(Cl)c1)CCN1CCOCC1 | 50% |  |  | 
Cc1ccc(/C=C/C(=O)CCN2CCOCC2)cc1.Cl | 38% |  |  | 
Cl.O=C(/C=C/c1ccc2c(c1)OCO2)CCN1CCOCC1 | 14% |  |  | 
CC(C)(C[N+](C)(C)C)C(=O)/C=C/c1ccccc1.[I-] |  | 2.33 | 13 | 
Cl.O=C(/C=C/c1ccc(Cl)cc1)CCN1CCOCC1 | 12% |  |  | 
Cl.O=C(/C=C/c1ccc(Cl)c(Cl)c1)CCN1CCOCC1 | 0% |  |  | Reduction (Human alphaherpesvirus 1 [4]): 80%; Reduction (Mus musculus [5]): 80%; Average lesion score (Human alphaherpesvirus 1 [6]): 0.5; Average lesion score (Human alphaherpesvirus 1 [7]): 0.5; Average lesion score (Mus musculus [8]): 0.5; Average lesion score (Mus musculus [9]): 0.83; Reduction (Human alphaherpesvirus 1 [10]): 80%; Reduction (Mus musculus [11]): 67%
COc1cccc(/C=C/C(=O)CCN2CCOCC2)c1.Cl | 0% |  |  | 
CCCSCCC(=O)/C=C/c1ccccc1 |  | 2.8 | 0 | 
Cl.O=C(/C=C/c1ccccc1)CCN1CCOCC1 | 11% | 0.17 | 94 | Reduction (Human alphaherpesvirus 1 [4]): 67%; Reduction (Mus musculus [5]): 80%; Average lesion score (Human alphaherpesvirus 1 [6]): 0.83; Average lesion score (Human alphaherpesvirus 1 [7]): 0.33; Reduction (Mus musculus [15]): 78%; Average lesion score (Mus musculus [8]): 0.55; Reduction (Mus musculus [16]): 70%; Average lesion score (Mus musculus [9]): 0.83; Reduction (Mus musculus [17]): 85%; Reduction (Mus musculus [18]): 78%; Reduction (Human alphaherpesvirus 1 [10]): 87%; Reduction (Mus musculus [11]): 67%
